The assay addresses T1, hSTING (Homo sapiens, UniProt Q86WV6, G230A/H232R/R293Q/R71H).
T1 construct: host or cells: THP1-Dual KO-IFNAR2 cells
The assay is described as follows: STING reporter assay (luciferase) in THP1-Dual KO-IFNAR2 cells stimulated with 2'3'cGAMP. The assay is classed as cell-based. The note with it: 2'3'cGAMP 15 μM, 24 h, luciferase reporter activity. An outline of the steps: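 THP1-Dual KO-IFNAR2 cells (2×10E6 cells/mL) exposed to compounds at 0.0017-100 μM final, then stimulated with 2′3′cGAMP (15 μM final) delivered by Lipofectamine 2000 transfection. After 24 h at 37° C, secreted luciferase in supernatant read by QUANTI-Luc luminescence; EC50 calculated.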
(Reporter assays use an easily measured gene product as a stand-in for the process of interest.)

For orientation: EC50 means the midpoint of the concentration-response curve.

T1 sequence (Q86WV6 whole entry R71H/G230A/H232R/R293Q): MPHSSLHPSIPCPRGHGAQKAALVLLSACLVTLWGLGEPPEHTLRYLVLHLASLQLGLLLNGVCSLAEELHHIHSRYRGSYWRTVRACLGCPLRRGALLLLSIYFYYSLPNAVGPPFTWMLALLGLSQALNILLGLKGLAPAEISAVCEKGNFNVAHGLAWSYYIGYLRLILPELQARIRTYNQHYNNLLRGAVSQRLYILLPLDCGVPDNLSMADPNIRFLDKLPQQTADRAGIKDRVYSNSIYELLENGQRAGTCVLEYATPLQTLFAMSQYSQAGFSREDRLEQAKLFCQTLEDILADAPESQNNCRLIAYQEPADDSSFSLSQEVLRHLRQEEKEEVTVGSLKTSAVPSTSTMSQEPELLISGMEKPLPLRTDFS

In turn, `O=C(Nc1cnc(N2CCN(CCC(F)(F)F)CC2)c(Cl)c1)Nc1c[nH]c2ccc(Cl)cc12` [Compound 124, 1-(5-chloro-1H-indol-3-yl)-3-(5-chloro-6-(4-(3,3,3-trifluoropropyl)piperazin-1-yl)pyridin-3-yl)urea] displayed an EC50 of 40 to 200 nM. Compound `O=C(Nc1cnc(C2CC(F)(F)C2)c(Cl)c1)Nc1c[nH]c2cc(F)c(F)cc12` [Compound 173, 1-(5-chloro-6-(3,3-difluorocyclobutyl)pyridin-3-yl)-3-(5,6-difluoro-1H-indol-3-yl)urea] displayed an EC50 of 200 to 1000 nM.

For `C[C@@H]1CN(c2ncc(NC(=O)Nc3c[nH]c4cc(F)c(F)cc34)cc2Cl)C[C@@H](C)O1` [Compound 142, 1-(5-chloro-6-((2R,6R)-2,6-dimethylmorpholino)pyridin-3-yl)-3-(5,6-difluoro-1H-indol-3-yl)urea], the EC50 fell in the range of 40 to 200 nM.

In turn, `O=C(Nc1cnc(N2CCN(CC3CC3)CC2)c(Cl)c1)Nc1c[nH]c2ccc(Cl)cc12` [Compound 260, 1-(5-chloro-1H-indol-3-yl)-3-(5-chloro-6-(4-(cyclopropylmethyl)piperazin-1-yl)pyridin-3-yl)urea] had an EC50 of 40 to 200 nM. The compound `O=C(Nc1cc(Cl)nc(C2CCC(F)(F)CC2)c1)Nc1c[nH]c2ccc(Cl)cc12` [Compound 221, 1-(5-chloro-1H-indol-3-yl)-3-(2-chloro-6-(4,4-difluorocyclohexyl)pyridin-4-yl)urea] gave an EC50 of 40 to 200 nM. On to `O=C(Nc1ccc(N2CCN(CCC(F)(F)F)CC2)nc1)Nc1c[nH]c2ccc(F)cc12` [Compound 252, 1-(5-fluoro-1H-indol-3-yl)-3-(6-(4-(3,3,3-trifluoropropyl)piperazin-1-yl)pyridin-3-yl)urea], for which the EC50 is 200 to 1000 nM.

In the case of `O=C(Nc1cnc(C2CCN(CC(F)(F)F)CC2)c(Cl)c1)Nc1c[nH]c2ccccc12` [Compound 279, 1-(5-chloro-6-(1-(2,2,2-trifluoroethyl)piperidin-4-yl)pyridin-3-yl)-3-(1H-indol-3-yl)urea], the EC50 fell in the range of 40 to 200 nM. Consider `O=C(Nc1cnc(C2CCC(F)(F)CC2)c(Cl)c1)Nc1c[nH]c2cc(Cl)ccc12` [Compound 140, 1-(6-chloro-1H-indol-3-yl)-3-(5-chloro-6-(4,4-difluorocyclohexyl)pyridin-3-yl)urea], for which the EC50 was 1000 to 5000 nM. `O=C(Nc1cc(Cl)c(C2CCC(F)(F)CC2)cn1)Nc1c[nH]c2cc(F)c(F)cc12` [Compound 154, 1-(4-chloro-5-(4,4-difluorocyclohexyl)pyridin-2-yl)-3-(5,6-difluoro-1H-indol-3-yl)urea] had an EC50 of 40 to 200 nM. As to `O=C(Nc1cnc(N2CCC(F)(F)CC2)c(Cl)c1)Nc1c[nH]c2cc(F)c(Cl)cc12` [Compound 170, 1-(5-chloro-6-(4.4-difluoropiperidin-1-yl)pyridin-3-yl)-3-(5-chloro-6-fluoro-1H-indol-3-yl)urea], the EC50 fell in the range of 40 to 200 nM. `O=C(Nc1ccc(C2CC(F)(F)C2)c(F)c1)Nc1c[nH]c2ccc(F)cc12` [Compound 272, 1-(4-(3,3-difluorocyclobutyl)-3-fluorophenyl)-3-(5-fluoro-1H-indol-3-yl)urea] showed an EC50 of 40 to 200 nM. Compound `N#Cc1cc(NC(=O)Nc2c[nH]c3ccccc23)ccc1C1CCC(F)(F)CC1` [Compound 207, 1-(3-cyano-4-(4,4-difluorocyclohexyl)phenyl)-3-(1H-indol-3-yl)urea] yielded an EC50 of 40 to 200 nM.

On to `O=C(Nc1cnc(C2CCC(F)(F)CC2)c(Cl)c1)Nc1c[nH]c2ccccc12` [Compound 248, 1-(5-chloro-6-(4,4-difluorocyclohexyl)pyridin-3-yl)-3-(1H-indol-3-yl)urea], for which the EC50 fell in the range of 40 to 200 nM.

For `O=C(Nc1cnc(C2CCN(CC(F)(F)F)CC2)c(Cl)c1)Nc1c[nH]c2ccc(Cl)cc12` [Compound 297, 1-(5-chloro-1H-indol-3-yl)-3-(5-chloro-6-(1-(2,2,2-trifluoroethyl)piperidin-4-yl)pyridin-3-yl)urea], the EC50 lay in the range of 40 to 200 nM. In the case of `O=C(Nc1cnc(N2CCC(F)(F)CC2)c(Cl)c1)Nc1c[nH]c2ccc(Br)cc12` [Compound 208, 1-(5-bromo-1H-indol-3-yl)-3-(5-chloro-6-(4,4-difluoropiperidin-1-yl)pyridin-3-yl)urea], the concentration for a half-maximal effect (EC50) lay within 1000 to 5000 nM. The compound `CO[C@@H]1CCCN(c2ncc(NC(=O)Nc3c[nH]c4cc(F)c(F)cc34)cc2Cl)C1` [Compound 149, (R)-1-(5-chloro-6-(3-methoxypiperidin-1-yl)pyridin-3-yl)-3-(5,6-difluoro-1H-indol-3-yl)urea] registered an EC50 of 200 to 1000 nM.

The compound `Cc1cc(NC(=O)Nc2c[nH]c3ccc(Br)cc23)cnc1N1CCC(F)(F)CC1` [Compound 184, 1-(5-bromo-1H-indol-3-yl)-3-(6-(4,4-difluoropiperidin-1-yl)-5-methylpyridin-3-yl)urea] registered an EC50 of 40 to 200 nM. With `O=C(Nc1ccnc(C2CCCN(CC(F)(F)F)C2)c1)Nc1c[nH]c2cc(F)c(F)cc12` (centres unmarked) [Compound 219, 1-(5,6-difluoro-1H-indol-3-yl)-3-(2-(1-(2,2,2-trifluoroethyl)piperidin-3-yl)pyridin-4-yl)urea], the EC50 fell in the range of 1000 to 5000 nM.

In the case of `Cc1cc(NC(=O)Nc2c[nH]c3cc(F)c(F)cc23)cnc1N1CCO[C@@H](C)C1` [Compound 151, (S)-1-(5,6-difluoro-1H-indol-3-yl)-3-(5-methyl-6-(2-methylmorpholino)pyridin-3-yl)urea], the EC50 is 200 to 1000 nM. With `Cc1cc(NC(=O)Nc2c[nH]c3cc(F)c(F)cc23)cnc1C1CCOCC1` [Compound 169, 1-(5,6-difluoro-1H-indol-3-yl)-3-(5-methyl-6-(tetrahydro-2H-pyran-4-yl)pyridin-3-yl)urea] the figure was 200 to 1000 nM; with `O=C(Nc1cnc(N2CCC3(CC2)CC3(F)F)c(Cl)c1)Nc1c[nH]c2ccc(Cl)cc12` [Compound 237, 1-(5-chloro-1H-indol-3-yl)-3-(5-chloro-6-(1,1-difluoro-6-azaspiro[2.5]octan-6-yl)pyridin-3-yl)urea], 40 to 200 nM. `COCCN1CCN(c2ncc(NC(=O)Nc3c[nH]c4cc(F)c(F)cc34)cc2Cl)CC1` [Compound 134, 1-(5-chloro-6-(4-(2-methoxyethyl)piperazin-1-yl)pyridin-3-yl)-3-(5,6-difluoro-1H-indol-3-yl)urea] displayed an EC50 of 1000 to 5000 nM. In turn, `O=C(Nc1cnc(N2CCN(CC(F)(F)F)CC2)c(Cl)c1)Nc1c[nH]c2cc(F)c(F)cc12` [Compound 269, 1-(5-chloro-6-(4-(2,2,2-trifluoroethyl)piperazin-1-yl)pyridin-3-yl)-3-(5,6-difluoro-1H-indol-3-yl)urea] showed an EC50 of 40 to 200 nM. As for `O=C(Nc1cnc(N2CC3(C2)CC(F)(F)C3)c(Cl)c1)Nc1c[nH]c2ccc(Cl)cc12` [Compound 138, 1-(5-chloro-1H-indol-3-yl)-3-(5-chloro-6-(6,6-difluoro-2-azaspiro[3.3]heptan-2-yl)pyridin-3-yl)urea], the figure is 40 to 200 nM.

In turn, `CC1(C)OCC(c2ncc(NC(=O)Nc3c[nH]c4ccc(Cl)cc34)cc2Cl)CO1` [Compound 264, 1-(5-chloro-1H-indol-3-yl)-3-(5-chloro-6-(2,2-dimethyl-1,3-dioxan-5-yl)pyridin-3-yl)urea] gave an EC50 of 40 to 200 nM. `O=C(Nc1cnc(C2CCC(F)(F)CC2)c(Cl)c1)Nc1c[nH]c2ccc(O)cc12` [Compound 191, 1-(5-chloro-6-(4,4-difluorocyclohexyl)pyridin-3-yl)-3-(5-hydroxy-1H-indol-3-yl)urea] registered an EC50 of 200 to 1000 nM.

Regarding `O=C(Nc1cnc(N2CCC3(CC2)CC(F)(F)C3)c(Cl)c1)Nc1c[nH]c2ccc(Cl)cc12` [Compound 275, 1-(5-chloro-1H-indol-3-yl)-3-(5-chloro-6-(2,2-difluoro-7-azaspiro[3.5]nonan-7-yl)pyridin-3-yl)urea], the EC50 fell in the range of 40 to 200 nM. Compound `COCCN1CCN(c2ncc(NC(=O)Nc3c[nH]c4cc(F)c(F)cc34)cc2C)CC1` [Compound 123, 1-(5,6-difluoro-1H-indol-3-yl)-3-(6-(4-(2-methoxyethyl)piperazin-1-yl)-5-methylpyridin-3-yl)urea] displayed a concentration giving a half-maximal response (EC50) of 5000 to 100000 nM. For the compound `O=C(Nc1cnc(N2CCC3(CCCCO3)CC2)c(F)c1)Nc1c[nH]c2cc(F)ccc12` [Compound 145, 1-(6-fluoro-1H-indol-3-yl)-3-(5-fluoro-6-(1-oxa-9-azaspiro[5.5]undecan-9-yl)pyridin-3-yl)urea], the EC50 is 200 to 1000 nM. `O=C(Nc1cn(C2CCC(F)(F)CC2)cn1)Nc1c[nH]c2ccc(F)cc12` [Compound 210, 1-[1-(4,4-difluorocyclohexyl)imidazol-4-yl]-3-(5-fluoro-1H-indol-3-yl)urea] yielded a half-maximal effective concentration (EC50) of 1000 to 5000 nM.

As for `O=C(Nc1ccc(C2CC(F)(F)C2)c(F)c1)Nc1c[nH]c2ccccc12` [Compound 282, 1-(4-(3,3-difluorocyclobutyl)-3-fluorophenyl)-3-(1H-indol-3-yl)urea], the EC50 lay in the range of 200 to 1000 nM. Compound `O=C(Nc1cnc(C2CCC(F)(F)CC2)c(CO)c1)Nc1c[nH]c2ccc(Cl)cc12` [Compound 136, 1-(5-chloro-1H-indol-3-yl)-3-(6-(4,4-difluorocyclohexyl)-5-(hydroxymethyl)pyridin-3-yl)urea] returned an EC50 of 200 to 1000 nM. In turn, `Cc1cc(NC(=O)Nc2c[nH]c3cc(F)c(F)cc23)cnc1N1CC(F)(F)C1` [Compound 162, 1-(5,6-difluoro-1H-indol-3-yl)-3-(6-(3,3-difluoroazetidin-1-yl)-5-methylpyridin-3-yl)urea] yielded an EC50 of 200 to 1000 nM.

For `O=C(Nc1cnc(N2CCC3(CC2)CC3(F)F)c(Cl)c1)Nc1c[nH]c2cc(F)c(F)cc12` [Compound 236, 1-(5-chloro-6-(1,1-difluoro-6-azaspiro[2.5]octan-6-yl)pyridin-3-yl)-3-(5,6-difluoro-1H-indol-3-yl)urea], the concentration giving a half-maximal response (EC50) fell in the range of 40 to 200 nM. `COCCO[C@@H]1CCN(c2ncc(NC(=O)Nc3c[nH]c4cc(F)c(F)cc34)cc2C)C1` [Compound 152, (R)-1-(5,6-difluoro-1H-indol-3-yl)-3-(6-(3-(2-methoxyethoxy)pyrrolidin-1-yl)-5-methylpyridin-3-yl)urea]: the EC50 was 1000 to 5000 nM.

The values above are taken from patent US20230127839A1, “COMPOUNDS AND COMPOSITIONS FOR TREATING CONDITIONS ASSOCIATED WITH STING ACTIVITY” (IFM Due, Inc., priority 2019, published 2023).
